This note sets out measurements from US11932636B2, “RAD51 inhibitors” (Cyteir Therapeutics, Inc., priority 2019, dated 2024).

SMILES strings stand for the structures. pEC50: −log10 of the molar value. A value given as a limit tells only on which side of the number the result lay.

In this experiment the test system is Daudi cells (AID positive). Nature of the experiment: Compound primary screening: cell death in AID positive Daudi cells (Cell-Titer Glo, Day 7). The settings on record: Homo sapiens, 168 h; Daudi cells, AID positive; cell death on Day 7, Cell-Titer Glo; read-out: Cellular activity in AID + (Daudi). It counts as cell-based. As to the method:
Example 149. Compound Primary Screening
AID expressing cells are dependent upon RAD51 for survival; inhibiting RAD51 in AID positive cells results in a cytotoxic effect.
A 96 well u-bottom plate was prepared by writing the experiment number, plate number, date and initials in the top right corner of the plate lid. With a sterile 300 ml reservoir, and 25 ml serological pipette, evaporation buffer media was pipetted into reservoir in 25 ml increments. Using the liquid handler, 150 ul of evaporation buffer media was pipetted from reservoir into rows A and H, and Columns 1 and 12 of the 96 well u-bottom plate. Cell cultures were counted to obtain the density of cells per ml, and the culture viability. The cell density information was used to obtain 1,000,000 cells from culture using a 5 mL serological pipette into an epi tube. The cell density information from the culture was used to calculate the number of cells and volume of media needed for the assay to seed 1250 cells in 130 ul of media per available culture well in the 96 well u-bottom plate. Rows B through F were used for cells (50 wells in total), with row G left for an empty media control. The calculation was overestimated by 10 mL to account for the dead volume in the 300 ml reservoir. Once the media volume was calculated, the appropriate volume of media was pipetted in 25 mL increments into the 250 mL bottle using a 25 mL serological pipette. The 250 ml bottle was capped tightly, and placed into a 37° C. water bath for 2 minutes. While the culture media was warming, 10 mL of fresh media was pipetted from the 500 mL culture media bottle into a sterile 25 mL reservoir. Using the Eppendorf multichannel pipette, 130 ul of media was pipetted from the 25 mL reservoir into row G of the 96 well u-bottom plate. Once the 250 mL bottle of media was warmed, the volume of culture needed was pipetted into the bottle, and mixed gently with a 25 mL serological pipette as to not create bubbles, and then the contents of the bottle were pipetted into a new 300 mL reservoir. Using the liquid handler, 130 ul of culture was pipetted from the 300 mL reservoir into rows B through F of the 96 well u-bottom plate. Once the culture was added, the plate was placed into a 37° C. incubator until the compound master plate was prepared for use.
Two 96 well u-bottom plates were prepared by writing the master plate name in the upper right corner of the plate lid. Labeling one DMSO master and the other Media Master. The compounds of interest were obtained from the laboratory freezer, and placed into a 25 well storage box with a lid, and set the box aside. The compounds were vortexed after thawing but before use. Using an automatic multichannel pipette, 20 ul of 100% DMSO was pipetted into wells B3-B11 through G3-G11 of the DMSO master plate. For each compound on the master plate, 50 ul of the compound were pipetted in the appropriate well of row 2 (reference plate map to determine appropriate well). A serial dilution was prepared beginning by aspirating 20 ul from row 2 and mixing with row 3, repeating until row 11 was reached. Using the liquid handler, 194 ul of Daudi media was dispensed into wells B2-B11 through G2-G11 of the Media master plate. Using the liquid handler, 6 ul from the DMSO master plate was aspirated and dispensed into the media master plate, mixing 100 ul twice.
Compounds from master plate were then added to the culture plate. The culture plates were removed from the incubator, and set inside the biosafety cabinet. Using a liquid handler, 20 ul from wells B2 to B11 through G2 to G11 of master plate were aspirated, and dispensed into wells B2 to B11 through G2 to G11 of culture plate. This set was continued with each culture plate. Once the culture plates acquired their 20 ul of compound dilutions, they were placed back into the incubator, until their reads on Day 7 of experiment.
Cell death was measured on Day 7 of the experiment using Cell-Titer Glo and a Promega Plate reader.
As to `CNCCOc1ccc(-c2cnc([C@H]3CC[C@H](NC(=O)OC(C)C)CC3)s2)c(S(=O)(=O)NC(C)(C)C)c1` [Compound 32, isopropyl (trans-4-(5-(2-(N-(tert-butyl)sulfamoyl)-4-(2-(methylamino)ethoxy)phenyl)thiazol-2-yl)cyclohexyl)carbamate], the pEC50 is less than 5.00.
In the case of `CC(C)COCc1ccc(-c2cnc([C@H]3CC[C@H](NC(=O)OC(C)C)CC3)s2)c(S(=O)(=O)NC(C)(C)C)c1` [Compound 33, isopropyl (trans-4-(5-(2-(N-(tert-butyl)sulfamoyl)-4-(isobutoxymethyl)phenyl)thiazol-2-yl)cyclohexyl)carbamate] it was 6.00 to 7.00.
In the case of `CC(C)COCc1ccc(-c2cnc([C@H]3CC[C@H](NC(=O)OC4COC4)CC3)s2)c(S(=O)(=O)NC(C)(C)C)c1` [Compound 34, oxetan-3-yl trans-N-[4-[5-[2-(tert-butylsulfamoyl)-4-(isobutoxymethyl)phenyl]thiazol-2-yl]cyclohexyl]carbamate], the pEC50 was 5.00 to 6.00.
`CCNS(=O)(=O)c1cc(C#N)ccc1-c1cnc([C@H]2CC[C@H](NC(=O)OC(C)C)CC2)s1` [Compound 36, isopropyl trans-N-[4-[5-[4-cyano-2-(ethylsulfamoyl)phenyl]thiazol-2-yl]cyclohexyl]carbamate]: the pEC50 is 5.00 to 6.00.
Regarding `CC(C)OC(=O)N[C@H]1CC[C@H](c2ncc(-c3ccc(Nc4ncc[nH]4)cc3S(=O)(=O)NC(C)(C)C)s2)CC1` [Compound 38, isopropyl trans-N-[4-[5-[2-(tert-butylsulfamoyl)-4-(1H-imidazol-2-ylamino)phenyl]thiazol-2-yl]cyclohexyl]carbamate], the pEC50 is more than 7.00.
Regarding `CC(C)NC(=O)Cc1ccc(-c2cnc([C@H]3CC[C@H](NC(=O)OC(C)C)CC3)s2)c(S(=O)(=O)NC(C)(C)C)c1` [Compound 40, isopropyl trans-N-[4-[5-[2-(tert-butylsulfamoyl)-4-[2-(isopropylamino)-2-oxo-ethyl]phenyl]thiazol-2-yl]cyclohexyl]carbamate], the pEC50 was more than 7.00.
Next, `CC(C)NC(=O)Cc1ccc(-c2cnc([C@H]3CC[C@H](NC(=O)OC4COC4)CC3)s2)c(S(=O)(=O)NC(C)(C)C)c1` [Compound 41, oxetan-3-yl (trans-4-(5-(2-(N-(tert-butyl)sulfamoyl)-4-(2-(isopropylamino)-2-oxoethyl)phenyl)thiazol-2-yl)cyclohexyl)carbamate]: 6.00 to 7.00.
In the case of `CC(C)OC(=O)N[C@H]1CC[C@H](c2ncc(-c3ccc(Nc4ncco4)cc3S(=O)(=O)NC(C)(C)C)s2)CC1` [Compound 42, isopropyl (trans-4-(5-(2-(N-(tert-butyl)sulfamoyl)-4-(oxazol-2-ylamino)phenyl)thiazol-2-yl)cyclohexyl)carbamate] it was more than 7.00; in that of `CC(C)OC(=O)N[C@H]1CC[C@H](c2ncc(-c3ccccc3S(N)(=O)=O)s2)CC1` [Compound 44, isopropyl trans-N-[4-[5-(2-sulfamoylphenyl)thiazol-2-yl]cyclohexyl]carbamate], 5.00 to 6.00.
In the case of `CCNS(=O)(=O)c1ccccc1-c1cnc([C@H]2CC[C@H](NC(=O)OC(C)C)CC2)s1` [Compound 45, isopropyl (trans-4-(5-(2-(N-ethylsulfamoyl)phenyl)thiazol-2-yl)cyclohexyl)carbamate] it was 5.00 to 6.00.
Regarding `CC(C)OC(=O)N[C@H]1CC[C@H](c2ncc(-c3ccccc3S(=O)(=O)NC(C)(C)C)s2)CC1` [Compound 46, isopropyl (trans-4-(5-(2-(N-(tert-butyl)sulfamoyl)phenyl)thiazol-2-yl)cyclohexyl)carbamate], the pEC50 was 5.00 to 6.00.
For the compound `CCNS(=O)(=O)c1cc(C(=O)O)ccc1-c1cnc([C@H]2CC[C@H](NC(=O)OC(C)C)CC2)s1` [Compound 48, trans-3-(ethylsulfamoyl)-4-[2-[4-(isopropyloxycarbonyl-amino)cyclohexyl]thiazol-5-yl]benzoic acid], the pEC50 is 5.00 to 6.00.
In the case of `CCNS(=O)(=O)c1cc(C(N)=O)ccc1-c1cnc([C@H]2CC[C@H](NC(=O)OC(C)C)CC2)s1` [Compound 49, isopropyl trans-N-[4-[5-[4-carbamoyl-2-(ethylsulfamoyl)phenyl]thiazol-2-yl]cyclohexyl]carbamate] it was 6.00 to 7.00; in that of `CCNS(=O)(=O)c1cc(C(=O)NC(C)C)ccc1-c1cnc([C@H]2CC[C@H](NC(=O)OC(C)C)CC2)s1` [Compound 50, isopropyl (trans-4-(5-(2-(N-ethylsulfamoyl)-4-(isopropylcarbamoyl)phenyl)thiazol-2-yl)cyclohexyl)carbamate], 6.00 to 7.00; in that of `CCNS(=O)(=O)c1cc(COCC(C)C)ccc1-c1cnc([C@H]2CC[C@H](NC(=O)OC(C)C)CC2)s1` [Compound 51, isopropyl (trans-4-(5-(2-(N-ethylsulfamoyl)-4-(isobutoxymethyl)phenyl)thiazol-2-yl)cyclohexyl)carbamate], 6.00 to 7.00.
Turning to `CCNS(=O)(=O)c1cc(COCC(C)C)ccc1-c1cnc([C@H]2CC[C@H](NC(=O)OC3COC3)CC2)s1` [Compound 52, oxetan-3-yl trans-N-[4-[5-[2-(ethylsulfamoyl)-4-(isobutoxy-methyl)phenyl]thiazol-2-yl]cyclohexyl]carbamate], the pEC50 is 6.00 to 7.00.
For `CC(C)OC(=O)N[C@H]1CC[C@H](c2ncc(-c3ccc(C#N)cc3S(=O)(=O)N3CCC3)s2)CC1` [Compound 54, isopropyl trans-N-[4-[5-[2-(azetidin-1-ylsulfonyl)-4-cyano-phenyl]thiazol-2-yl]cyclohexyl]carbamate], the pEC50 is 5.00 to 6.00.
With `CCNS(=O)(=O)c1cc(Nc2ncc[nH]2)ccc1-c1cnc([C@H]2CC[C@H](NC(=O)OC(C)C)CC2)s1` [Compound 56, isopropyl trans-N-[4-[5-[2-(ethylsulfamoyl)-4-(1H-imidazol-2-ylamino)phenyl]thiazol-2-yl]cyclohexyl]carbamate], the pEC50 is more than 7.00.
In the case of `CCNS(=O)(=O)c1cc(CC(=O)NC(C)C)ccc1-c1cnc([C@H]2CC[C@H](NC(=O)OC(C)C)CC2)s1` [Compound 58, isopropyl trans-N-[4-[5-[2-(ethylsulfamoyl)-4-[2-(isopropylamino)-2-oxo-ethyl]phenyl]thiazol-2-yl]cyclohexyl]carbamate] it was 6.00 to 7.00.
Next, `CCNS(=O)(=O)c1cc(CC(=O)NC(C)C)ccc1-c1cnc([C@H]2CC[C@H](NC(=O)OC3COC3)CC2)s1` [Compound 59, oxetan-3-yl (trans-4-(5-(2-(N-ethylsulfamoyl)-4-(2-(isopropylamino)-2-oxoethyl)phenyl)thiazol-2-yl)cyclohexyl)carbamate]: 6.00 to 7.00; `CCNS(=O)(=O)c1cc(Nc2ncco2)ccc1-c1cnc([C@H]2CC[C@H](NC(=O)OC(C)C)CC2)s1` [Compound 60, isopropyl (trans-4-(5-(2-(N-ethylsulfamoyl)-4-(oxazol-2-ylamino)phenyl)thiazol-2-yl)cyclohexyl)carbamate]: more than 7.00; `CCNS(=O)(=O)c1cc(C(=O)O)ccc1-c1cnc([C@H]2CC[C@H](NC(=O)OC3COC3)CC2)s1` [Compound 66, trans-3-(ethylsulfamoyl)-4-[2-[4-(oxetan-3-yloxy-carbonylamino)cyclohexyl]thiazol-5-yl]benzoic acid]: 5.00 to 6.00.
Next, `CCNS(=O)(=O)c1cc(C(N)=O)ccc1-c1cnc([C@H]2CC[C@H](NC(=O)OC3COC3)CC2)s1` [Compound 67, oxetan-3-yl trans-N-[4-[5-[4-carbamoyl-2-(ethylsulfamoyl)phenyl]thiazol-2-yl]cyclohexyl]carbamate]: 5.00 to 6.00; `CCNS(=O)(=O)c1cc(C(=O)NC(C)C)ccc1-c1cnc([C@H]2CC[C@H](NC(=O)OC3COC3)CC2)s1` [Compound 68, oxetan-3-yl (trans-4-(5-(2-(N-ethylsulfamoyl)-4-(isopropylcarbamoyl)phenyl)thiazol-2-yl)cyclohexyl)carbamate]: 6.00 to 7.00.
